This is an account of results in patent US20160166676A1 (priority 2013, published 2016).

For experiment [1], the target named is STING deletion mutant DN5 (162-N) (Homo sapiens, UniProt Q86WV6). Format: binding.
A further experiment deals with CTLL-2 cells. Format: cell-based.

Chain of STING deletion mutant DN5 (162-N) (Q86WV6 162-379, stated change not applied): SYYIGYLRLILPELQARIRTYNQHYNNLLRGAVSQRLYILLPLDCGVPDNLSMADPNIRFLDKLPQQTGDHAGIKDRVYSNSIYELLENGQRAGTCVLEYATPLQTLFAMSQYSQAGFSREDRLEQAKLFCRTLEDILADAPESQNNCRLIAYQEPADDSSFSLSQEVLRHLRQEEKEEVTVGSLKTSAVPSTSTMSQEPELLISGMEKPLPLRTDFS

“GLFGAIAGFIENGWEGCGGEKEKEK [IN F#2 dimer]”: in experiment [1], the “pulldown of STING deletion mutant DN5 (162-N) by biotinylated peptide” value was “readily pulled down”. Besides, in the experiment on CTLL-2 cells, the “proliferation of CTLL-2 cells” value is “inhibits the proliferation of CTLL-2 cells”.
